Results reported in patent US8772504B2, “Substituted benzoxazole, benzimidazole, oxazolopyridine and imidazopyridine derivatives as gamma secretase modulators” (Janssen Pharmaceuticals, Inc., priority 2009, dated 2014).

Columns and labels:
Format in all cases: cell-based
Aβtotal [1] = assay: Screening for γ-secretase-modulating activity, Method 2: Aβtotal Alphalisa on SKNBE2 cell supernatant; conditions: Method 2, Table 3c, SKNBE2 cells carrying APP 695 wild type, overnight incubation
How it was run: (§1)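 SKNBE2 cells expressing wild-type APP695, plated at 10^4 cells/well with compound at several concentrations and incubated overnight at 37° C. Aβ42 (C-terminal capture, N-terminal biotinylated detection) and Aβtotal (N-terminal/4G8 pair) measured in supernatant by AlphaLISA. IC50 from 4-parameter fit of percent of compound-free control.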

Aβtotal [2] = assay: Screening for γ-secretase-modulating activity, Method 1: Aβtotal sandwich ELISA on SKNBE2 cell media; conditions: SKNBE2 cells carrying APP 695 wild type
How it was run: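 SKNBE2 cells expressing wild-type APP 695 were treated with compound for 18 hours. Aβtotal in the medium was measured by sandwich ELISA (6E10 capture, biotinylated 4G8 detection, fluorogenic peroxidase read-out). IC50 came from a 4-parameter fit of % inhibition with top/bottom fixed at 100/0 and Hill slope 1, or as averaged IC50 from % of untreated control.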

Aβ42 = assay: Screening for γ-secretase-modulating activity, Method 2: Aβ42 Alphalisa on SKNBE2 cell supernatant; conditions: Method 2, Table 3c, SKNBE2 cells carrying APP 695 wild type, overnight incubation
How it was run: as §1

[3] = Homo sapiens, Table 3a, 18 hours, XLfit, top/bottom fixed to 100 and 0, hill slope 1
[4] = Homo sapiens, Table 3b, non-linear regression of % of control, averaged IC50 values
[5] = Table 3a, 18 hours, XLfit, top/bottom fixed to 100 and 0, hill slope 1
[6] = Table 3b, non-linear regression of % of control, averaged IC50 values

Row | IC50 (Aβtotal [1]; Homo sapiens) | IC50 (Aβtotal [2]; [3]) | IC50 (Aβtotal [2]; [4]) | IC50 (Aβ42; Homo sapiens) | IC50 (Aβtotal [1]) | IC50 (Aβtotal [2]; [5]) | IC50 (Aβtotal [2]; [6]) | IC50 (Aβ42) | Compound
1 | > 10000 nM | > 3000 nM | > 3000 nM | 27 nM |  |  |  |  | COc1cc(Nc2cccc3c2nc(-c2ccc(F)cc2)n3C)ccc1-n1cnc(C)n1 [Compound 4]
2 | > 10000 nM | > 3000 nM | > 3000 nM | 17 nM |  |  |  |  | COc1cc(Nc2nccc3c2nc(-c2ccc(F)cc2)n3C)ccc1-n1cnc(C)c1 [Compound 8]
3 | 7940 nM | > 3000 nM | > 3000 nM | 6 nM |  |  |  |  | COc1nc(Nc2cccc3c2nc(-c2ccc(F)cc2)n3C)ccc1-n1cnc(C)c1 [Compound 15]
4 |  |  |  |  | 7410 nM | > 3000 nM | > 3000 nM | 78 nM | CCn1c(CC2CC2)nc2c(Nc3ccc(-n4cnc(C)c4)c(OC)c3)cccc21 [Compound 36]
5 |  |  |  |  | 8510 nM | > 3000 nM | > 3000 nM | 141 nM | COc1cc(Nc2cccc3c2nc(Oc2ccccc2)n3C)ccc1-n1cnc(C)c1 [Compound 61]
6 |  |  |  |  | > 10000 nM | > 3000 nM | > 3000 nM | 36 nM | Cc1cn(-c2ccc(Nc3cccc4c3nc(-c3ccc(F)cc3)n4C)cc2F)cn1 [Compound 67]
7 |  |  |  |  | > 10000 nM | > 3000 nM | > 3000 nM | 288 nM | Cc1ncn(-c2ccc(Nc3cccc4c3nc(-c3ccc(F)cc3)n4C(C)C)cc2)n1.Cl.Cl [Compound 73]
8 |  |  |  |  | 7760 nM | > 3000 nM | > 3000 nM | 45 nM | COc1cc(Nc2cccc3c2nc(-c2ccc(F)cc2)n3C(C)C)ccc1-n1cnc(C)n1.Cl.Cl [Compound 75]
9 |  |  |  |  | > 10000 nM | > 3000 nM | > 10000 nM | 72 nM | Cc1ncn(-c2ccc(Nc3cccc4c3nc(-c3ccc(F)cc3)n4C(C)C)cn2)n1 [Compound 76]
10 |  |  |  |  | 4270 nM | > 10000 nM | > 10000 nM | 178 nM | COc1cc(Nc2nccc3c2nc(-c2ccc(F)cc2)n3C)ccc1-n1cnc(C)n1 [Compound 92]
11 | > 10000 nM | > 3000 nM | 1170 nM | 20 nM |  |  |  |  | COc1cc(Nc2cc(C(C)C)nc3c2nc(-c2ccc(F)cc2)n3C)ccc1-n1cnc(C)n1 [Compound 110]
12 | 3890 nM | > 3000 nM | > 3000 nM | 21 nM |  |  |  |  | COc1cc(-c2nc3c(Nc4ccc(-n5cnc(C)n5)c(OC)c4)nccc3n2C)ccc1Cl [Compound 114]
13 |  |  |  |  | > 10000 nM | > 10000 nM |  | 2 nM | COc1nc(Nc2cc(F)cc3c2nc(-c2ccc(F)cc2)n3C)ccc1-n1cnc(C)c1 [Compound 115]
14 |  |  |  |  | > 10000 nM |  | > 3000 nM | 129 nM | COc1cc(Nc2nccc3c2nc(-c2ccccc2C(F)(F)F)n3C)ccc1-n1cnc(C)n1 [Compound 130]
15 |  |  |  |  | > 10000 nM |  | > 3000 nM | 46 nM | COc1cc(Nc2nc(C)cc3c2nc(-c2ccc(F)cc2)n3C)ccc1-n1cnc(C)n1 [Compound 164]

Row | Compound | IC50 (Aβtotal [1]; Homo sapiens) | IC50 (Aβtotal [2]; [3]) | IC50 (Aβtotal [2]; [4]) | IC50 (Aβ42; Homo sapiens) | IC50 (Aβtotal [1]) | IC50 (Aβtotal [2]; [5]) | IC50 (Aβtotal [2]; [6]) | IC50 (Aβ42)
16 | COc1cc(Nc2cccc3c2nc(-c2ccc(F)cc2)n3C)ccc1-n1cnc(C)c1 [Compound 1] | 590 nM | > 1000 nM | 13500 nM | 16 nM |  |  |  | 
